# US6743598B2, “Methods for the identification of fungal glucose utilization inhibitors and antifungal agents” (priority 2001, dated 2004)
# “Also recorded” adds a separate entry of the source.
# Assays:
# [1] = target: yeast phosphoglucose isomerase (Saccharomyces cerevisiae, UniProt P12709); conditions: cited from earlier work
# [2] = target: T. brucei phosphoglucose isomerase (Trypanosoma brucei brucei, UniProt P13377); conditions: cited from earlier work
# [3] = target: Rabbit phosphoglucose isomerase (Oryctolagus cuniculus, UniProt Q9N1E2); conditions: low ionic strength, cited from earlier work
# Chitin synthase = conditions: competitive substrate inhibitors of chitin synthase; cited from earlier work
# [4] = system: A. fumigatus phosphoglucose isomerase, ketol-isomerase, and N-acetyltransferase; assay: Colorimetric CoA(GlcNAc-6-P) formation assay in crude A. fumigatus lysates; type: biochemical, Aspergillus fumigatus; conditions: added to crude A. fumigatus lysates, FIG. 5
# Procedure: A. fumigatus ATCC16424 (a human clinical isolate) was inoculated into liquid YG medium [1% (w/v) yeast extract and 1% (w/v) glucose] with 1×10^7 conidia per/mL (final concentration), and incubated for 18 hours at 37° C. with shaking (250 rpm). Hyphae were harvested by vacuum filtration over Whatman No. 2 filter paper, washed twice with ice-cold water, quick-frozen in dry ice, and stored at −80° C.
# Frozen A. fumigatus hyphae were thawed and disrupted by bead-beating (6×30 seconds pulses with 2 minutes cooling between each pulse) using 0.5 mm zirconium beads in KI buffer (600 mM sucrose, 1 mM KCl, 1 mM EDTA, 50 mM PIPES, pH 6.8). The lysates were centrifuged at 1,000×g for 10 minutes at 4° C. The supernatants were stored at −80° C. and used as enzyme sources. The protein concentration of the supernatants was determined using the BioRad protein assay kit.
# Reactions were performed in 96-well flat bottom microtiter plates containing 10 mM Glc-6-P, 10 mM glutamine, 200 μM AcCoA, and 0.25 mg/mL cell lysate of A. fumigatus at pH 6.8 in a final volume of 50 μL. […] After incubation for 10 minutes at room temperature, the OD412 was measured using a microtiter plate reader. […] The amount of CoA formed by reaction mixtures was calculated from the standard curve. […]
# T. brucei PGI = T. brucei PGI (Trypanosoma brucei brucei, UniProt P13377); conditions: cited from earlier work
# Yeast PGI = Yeast PGI (Saccharomyces cerevisiae, UniProt P12709); conditions: cited from earlier work
# [5] = read-out: Fru-6-P Km, low ionic strength
# [6] = competitive inhibitor, low ionic strength, read-out: Gluconate-6-P Ki
# Chain of T. brucei PGI (P13377 whole entry): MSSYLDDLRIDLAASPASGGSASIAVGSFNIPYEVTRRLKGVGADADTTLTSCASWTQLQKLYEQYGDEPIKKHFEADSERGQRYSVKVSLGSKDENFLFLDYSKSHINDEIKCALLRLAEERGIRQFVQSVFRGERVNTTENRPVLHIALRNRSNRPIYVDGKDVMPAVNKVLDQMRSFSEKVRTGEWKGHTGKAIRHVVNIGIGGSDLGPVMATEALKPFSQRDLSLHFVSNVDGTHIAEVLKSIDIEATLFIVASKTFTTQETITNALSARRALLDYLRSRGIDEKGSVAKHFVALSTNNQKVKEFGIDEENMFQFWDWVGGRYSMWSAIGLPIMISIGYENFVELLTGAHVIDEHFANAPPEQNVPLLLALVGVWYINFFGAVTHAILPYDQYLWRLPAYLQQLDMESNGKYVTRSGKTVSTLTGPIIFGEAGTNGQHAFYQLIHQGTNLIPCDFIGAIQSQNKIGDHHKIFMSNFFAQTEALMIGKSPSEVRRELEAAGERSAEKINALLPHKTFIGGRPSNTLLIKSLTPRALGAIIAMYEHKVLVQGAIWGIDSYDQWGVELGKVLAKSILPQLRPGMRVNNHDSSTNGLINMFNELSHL
# Chain of T. brucei phosphoglucose isomerase (P13377 whole entry): as above
# Chain of yeast phosphoglucose isomerase (P12709 2-554): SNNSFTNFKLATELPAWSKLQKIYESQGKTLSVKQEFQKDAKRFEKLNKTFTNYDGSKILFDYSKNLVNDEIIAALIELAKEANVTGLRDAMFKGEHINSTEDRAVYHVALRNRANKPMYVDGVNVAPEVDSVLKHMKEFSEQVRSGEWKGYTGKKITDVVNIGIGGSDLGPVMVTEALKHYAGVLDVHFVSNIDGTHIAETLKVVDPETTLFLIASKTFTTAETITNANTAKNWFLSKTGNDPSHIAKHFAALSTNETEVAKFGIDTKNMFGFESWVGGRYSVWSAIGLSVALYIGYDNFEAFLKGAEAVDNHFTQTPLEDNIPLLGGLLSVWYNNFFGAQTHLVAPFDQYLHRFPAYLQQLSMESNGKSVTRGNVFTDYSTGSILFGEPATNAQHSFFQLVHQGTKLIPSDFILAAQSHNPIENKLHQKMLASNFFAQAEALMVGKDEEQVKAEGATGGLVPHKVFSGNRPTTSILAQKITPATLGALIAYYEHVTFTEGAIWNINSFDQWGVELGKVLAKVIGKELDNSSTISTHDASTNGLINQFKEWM
# Chain of Yeast PGI (P12709 2-554): as above
compound,measurement,setting,value
"O=C(CO)[C@@H](O)[C@H](O)[C@H](O)COP(=O)(O)O [Fru-6-P, fructose-6-phosphate]",Km,[1]; [5],167 ± 48 µM
same,Km,[2]; [5],122 ± 45 µM
same,Km,[3]; read-out: Fru-6-P Km,119 ± 28 µM
polyoxins,inhibition constants (Ki),Chitin synthase,in the μM range
uridine diphosphate-N-acetyl glucosamine [UDP-GlcNAc],inhibition of CoA (GlcNAc-6-P) formation,[4],inhibited the formation of CoA (GlcNAc-6-P) in a dose-dependent manner; also recorded: inhibited the production of CoA in a dose dependent manner
O=C(NO)[C@@H](O)[C@H](O)[C@H](O)COP(=O)(O)O [D-Arabinohydroxamic acid-5-phosphate],Ki,T. brucei PGI; T. brucei PGI,0.05 ± 0.009 µM
same,Km/Ki,T. brucei PGI; T. brucei PGI,2060
same,specificity for T. brucei phosphoglucose isomerase versus yeast isomerase,T. brucei PGI; T. brucei versus yeast,4.6 fold
same,Ki,Yeast PGI,0.23 ± 0.02 µM
same,Km/Ki,Yeast PGI,300
"O=C(O)[C@H](O)[C@@H](O)[C@H](O)[C@H](O)COP(=O)(O)O [Gluconate-6-P, gluconate-6-phosphate]",inhibition of CoA (GlcNAc-6-P) formation,[4],inhibited the formation of CoA (GlcNAc-6-P) in a dose-dependent manner; also recorded: inhibited the production of CoA in a dose dependent manner
same,Ki,[1]; [6],480 ± 120 µM
same,Ki,[2]; [6],140 ± 30 µM
same,Ki,"[3]; competitive inhibitor, read-out: Gluconate-6-P Ki",120 ± 30 µM
